Source: patent publication US9179694B2, “Method and composition for enhancing milk production and milk component concentrations” (PURINA ANIMAL NUTRITION LLC, priority 2003, dated 2015)
Marks after values point to notes of the source that are not given here.

Assay: Non-esterified fatty acid (NEFA) concentration in blood in sorbitol feeding trials
Format: in vivo, Holstein cows
Conditions: for lower concentration of NEFA in the blood: at about the time of giving birth
Description: To determine the weight percent of non-esterified fatty acid NEFA, wet basis, in a sample of blood, the blood sample is analyzed by an enzymatic colorimetric method (ACS-ACOD) using the NEFA C diagnostic kit (WAKO Chemicals USA, Richmond, Va.) in combination with an Hitachi 704 Automated Chemistry Analyzer (Hitachi Ltd., Tokyo, Japan). The enzymatic colorimetric method utilizes acyl-CoA synthethase (ACS) and acyl-CoA oxidase (ACOD) to produce a substance that may be measured colorimetrically. The NEFA analysis is conducted in accordance with the NEFA C ACS-ACOD Method instructions that WAKO Chemicals USA provides along with the NEFA C diagnostic kit.
Each cow of each of the six different trials (Control Trial #1, Control Trial #2, Pre-Partum Trial #1, Pre-Partum Trial #2, Pre/Post Trial #1, and Pre/Post Trial #2) was milked three times daily and the weight of produced milk by each cow was recorded at each milking. The milk from each cow was sampled once per week (⅓ of the sample volume from each of the three milkings occurring on the weekly milk sampling day) and was analyzed for true protein, total fat, lactose, and total solids, as detailed in the property determination and characterization techniques presented above. Additionally, samples of blood were periodically obtained from each cow during the four trials (Control Trial 2, Pre-Partum Trial #2, Pre/Post Trial #1, and Pre/Post Trial #2) encompassed in Example Two and were analyzed for non-esterified fatty acid (NEFA) content as detailed in the property determination and characterization techniques presented above. No NEFA analysis was conducted on the cows employed in Control Trial #1 or Pre-Partum Trial #1 that are the subject of Example One.
Example Two includes Control Trial #2, Pre-Partum Trial #2, Pre/Post Trial #1, and Pre/Post Trial #2. Only multiparious, Holstein cows were included in Control Trial #2, Pre-Partum Trial #1, Pre/Post Trial #1, and Pre/Post Trial #2. Eighteen multiparious cows were included in both Control Trial #2 and Pre-Partum Trial #2, while sixteen multiparious cows were included in Pre/Post Trial #1 and seventeen multiparious cows were included in Pre/Post Trial #2.

SMILES: OC[C@@H](O)[C@@H](O)[C@H](O)[C@@H](O)CO [sorbitol]
- Non-Esterified Fatty Acid (NEFA) Concentration in Blood (Pre-Partum Trial #2 (75/0/100 g/day in wk −3..−1/+1..+4/+5..+8), multiparious cows, day 0 (Calving)): 0.470^ab mEq/l
- Non-Esterified Fatty Acid (NEFA) Concentration in Blood (Pre-Partum Trial #2 (75/0/100 g/day in wk −3..−1/+1..+4/+5..+8), multiparious cows, day +10): 0.372 mEq/l
- Non-Esterified Fatty Acid (NEFA) Concentration in Blood (Pre-Partum Trial #2 (75/0/100 g/day in wk −3..−1/+1..+4/+5..+8), multiparious cows, day −7): 0.122 mEq/l
- Non-Esterified Fatty Acid (NEFA) Concentration in Blood (Pre-Partum Trial #2 (75/0/100 g/day in wk −3..−1/+1..+4/+5..+8), multiparious cows, day −21): 0.103 mEq/l
- Non-Esterified Fatty Acid (NEFA) Concentration in Blood (Pre/Post Trial #1 (150/125/100 g/day in wk −3..−1/+1..+4/+5..+8), multiparious cows, day 0 (Calving)): 0.416^a mEq/l
- Non-Esterified Fatty Acid (NEFA) Concentration in Blood (Pre/Post Trial #1 (150/125/100 g/day in wk −3..−1/+1..+4/+5..+8), multiparious cows, day 0 (Calving), two-trial comparison with Control Trial #2 (Table 27)): 0.416^b mEq/l
- Non-Esterified Fatty Acid (NEFA) Concentration in Blood (Pre/Post Trial #1 (150/125/100 g/day in wk −3..−1/+1..+4/+5..+8), multiparious cows, day +10): 0.476 mEq/l
- Non-Esterified Fatty Acid (NEFA) Concentration in Blood (Pre/Post Trial #1 (150/125/100 g/day in wk −3..−1/+1..+4/+5..+8), multiparious cows, day +10, two-trial comparison with Control Trial #2 (Table 27)): 0.476 mEq/l
- Non-Esterified Fatty Acid (NEFA) Concentration in Blood (Pre/Post Trial #1 (150/125/100 g/day in wk −3..−1/+1..+4/+5..+8), multiparious cows, day −7): 0.107 mEq/l
- Non-Esterified Fatty Acid (NEFA) Concentration in Blood (Pre/Post Trial #1 (150/125/100 g/day in wk −3..−1/+1..+4/+5..+8), multiparious cows, day −7, two-trial comparison with Control Trial #2 (Table 27)): 0.107 mEq/l
- Non-Esterified Fatty Acid (NEFA) Concentration in Blood (Pre/Post Trial #1 (150/125/100 g/day in wk −3..−1/+1..+4/+5..+8), multiparious cows, day −21): 0.141 mEq/l
- Non-Esterified Fatty Acid (NEFA) Concentration in Blood (Pre/Post Trial #1 (150/125/100 g/day in wk −3..−1/+1..+4/+5..+8), multiparious cows, day −21, two-trial comparison with Control Trial #2 (Table 27)): 0.141 mEq/l
- lower NEFA concentrations in blood (Pre/Post Trial #1 (150/125/100 g/day) versus Control Trial #2, multiparious cows, at calving (Table 27)): 42%
- Non-Esterified Fatty Acid (NEFA) Concentration in Blood (Pre/Post Trial #2 (75/75/100 g/day in wk −3..−1/+1..+4/+5..+8), multiparious cows, day 0 (Calving)): 0.637^ab mEq/l
- Non-Esterified Fatty Acid (NEFA) Concentration in Blood (Pre/Post Trial #2 (75/75/100 g/day in wk −3..−1/+1..+4/+5..+8), multiparious cows, day +10): 0.556 mEq/l
- Non-Esterified Fatty Acid (NEFA) Concentration in Blood (Pre/Post Trial #2 (75/75/100 g/day in wk −3..−1/+1..+4/+5..+8), multiparious cows, day −7): 0.119 mEq/l
- Non-Esterified Fatty Acid (NEFA) Concentration in Blood (Pre/Post Trial #2 (75/75/100 g/day in wk −3..−1/+1..+4/+5..+8), multiparious cows, day −21): 0.114 mEq/l
- lower concentration of NEFA in the blood (Pre/Post Trial #2 (so in the source) versus Control Trial #2, multiparious cows): 42%
- NEFA concentrations in blood compared with control (all three sorbitol feeding trials (Pre-Partum Trial #2, Pre/Post Trial #1, Pre/Post Trial #2), multiparous cows, the week before calving and at calving): lower than the NEFA concentrations in blood found during Control Trial #2
- lower concentration of NEFA in the blood (average of means of Pre-Partum Trial #2, Pre/Post Trial #1 and Pre/Post Trial #2 versus Control Trial #2, multiparious cows): 28%
